Experimental data published in patent US20240092758A1, “IMIDAZOLO INDAZOLE COMPOUNDS AS JAK INHIBITORS” (Theravance Biopharma R&D IP, LLC, priority 2021, published 2024).

Assays:
JAK1 = JAK1 (Homo sapiens (Human), UniProt P23458); assay: Biochemical JAK kinase assay (LanthaScreen), JAK1; settings: for Ki: read-out: JAK1 pKi (converted)
Summary of the method: (§1)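 LanthaScreen format: phospho-STAT1 (pTyr701) detected with 2 nM Tb antibody after 10 mM EDTA quench. Kinase step used Km-level ATP and 200 nM STAT1 peptide, 1 h at ambient after 1 h pre-incubation. Inhibition fitted to IC50, reported as pKi.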

TYK2 = TYK2 (Homo sapiens (Human), UniProt P29597); assay: Biochemical JAK kinase assay (LanthaScreen), Tyk2; settings: read-out: Tyk2 pKi (converted)
Summary of the method: as §1

JAK2 = JAK2 (Homo sapiens (Human), UniProt O60674); assay: Biochemical JAK kinase assay (LanthaScreen), JAK2; settings: for Ki: read-out: JAK2 pKi (converted)
Summary of the method: as §1

JAK3 = JAK3 (Homo sapiens (Human), UniProt P52333); assay: Biochemical JAK kinase assay (LanthaScreen), JAK3; settings: read-out: JAK3 pKi (converted)
Summary of the method: as §1

[1] = system: IL-13 induced STAT6 phosphorylation in BEAS-2B human lung epithelial cells; assay: Cellular JAKI potency assay (BEAS-2B); assay type: cell-based; settings: Homo sapiens, BEAS-2B, BEAS-2B cells, read-out: BEAS2B pIC50 (converted)
Summary of the method: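 AlphaLISA SureFire detection of Tyr641 pSTAT6 in lysates gave IC50s (4-parameter fit, expressed as pIC50). Cells: human BEAS-2B, exposed 1 h at 37 °C to compound dose series at 0.1% DMSO, then 30 min to IL-13 added at 80 ng/mL in HEPES-buffered HBSS with BSA.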

[2] = Pharmacokinetics in plasma and lung in mouse after oral aspiration administration; assay type: in vivo; settings: male CD1 mice; for Lung Tissue AUC(0-24) / AUC(0-t): 0.2 mg/mL, two 25 μL increments; for Lung Tissue:Plasma AUC ratio: lung AUC to plasma AUC; for AUC(0-t): mouse, inhaled or intranasal, 0.01 mg/mouse, plasma, read-out: Plasma AUC(0-24)
Summary of the method: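 Male CD1 mice given 0.2 mg/mL compound in 20% propylene glycol/pH 4 citrate buffer, two 25 μL increments by oral aspiration into the trachea under isoflurane. Plasma and lung homogenate sampled 0.167–24 hr and measured by LC-MS/MS. Non-compartmental analysis gave AUC(0-inf); lung-to-plasma ratio from lung (μg*hr/g) over plasma (μg*hr/mL) AUC.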

JAK2, sequence (O60674 whole entry): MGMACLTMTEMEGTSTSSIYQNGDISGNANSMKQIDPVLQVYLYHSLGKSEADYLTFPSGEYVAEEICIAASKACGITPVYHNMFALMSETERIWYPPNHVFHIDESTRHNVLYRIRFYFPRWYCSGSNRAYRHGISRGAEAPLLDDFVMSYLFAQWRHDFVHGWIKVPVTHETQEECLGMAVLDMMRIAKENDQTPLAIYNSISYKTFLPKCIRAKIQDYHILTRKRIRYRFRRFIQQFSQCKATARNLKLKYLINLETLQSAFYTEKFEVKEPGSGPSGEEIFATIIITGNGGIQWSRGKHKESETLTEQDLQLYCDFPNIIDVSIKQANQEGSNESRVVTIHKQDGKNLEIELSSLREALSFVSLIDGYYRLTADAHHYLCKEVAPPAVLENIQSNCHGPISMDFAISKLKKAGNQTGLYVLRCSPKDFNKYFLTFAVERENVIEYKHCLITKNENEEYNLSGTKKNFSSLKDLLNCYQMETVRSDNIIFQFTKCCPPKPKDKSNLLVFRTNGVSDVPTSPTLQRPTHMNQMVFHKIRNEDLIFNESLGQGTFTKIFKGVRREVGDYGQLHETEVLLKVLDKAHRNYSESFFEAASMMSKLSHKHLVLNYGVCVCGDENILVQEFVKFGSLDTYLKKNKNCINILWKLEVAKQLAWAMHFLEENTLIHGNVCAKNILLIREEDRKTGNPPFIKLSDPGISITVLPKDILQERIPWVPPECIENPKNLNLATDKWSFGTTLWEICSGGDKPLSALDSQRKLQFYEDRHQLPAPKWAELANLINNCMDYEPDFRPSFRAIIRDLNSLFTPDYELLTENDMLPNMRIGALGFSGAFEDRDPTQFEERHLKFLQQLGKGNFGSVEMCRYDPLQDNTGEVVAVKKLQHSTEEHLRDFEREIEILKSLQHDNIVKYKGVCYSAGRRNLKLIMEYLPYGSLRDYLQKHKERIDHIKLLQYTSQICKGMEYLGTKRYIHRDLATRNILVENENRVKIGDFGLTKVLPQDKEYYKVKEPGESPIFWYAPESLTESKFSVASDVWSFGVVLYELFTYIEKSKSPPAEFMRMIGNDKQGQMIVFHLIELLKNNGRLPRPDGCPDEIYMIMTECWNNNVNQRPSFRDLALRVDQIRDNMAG
JAK1, sequence (P23458 whole entry): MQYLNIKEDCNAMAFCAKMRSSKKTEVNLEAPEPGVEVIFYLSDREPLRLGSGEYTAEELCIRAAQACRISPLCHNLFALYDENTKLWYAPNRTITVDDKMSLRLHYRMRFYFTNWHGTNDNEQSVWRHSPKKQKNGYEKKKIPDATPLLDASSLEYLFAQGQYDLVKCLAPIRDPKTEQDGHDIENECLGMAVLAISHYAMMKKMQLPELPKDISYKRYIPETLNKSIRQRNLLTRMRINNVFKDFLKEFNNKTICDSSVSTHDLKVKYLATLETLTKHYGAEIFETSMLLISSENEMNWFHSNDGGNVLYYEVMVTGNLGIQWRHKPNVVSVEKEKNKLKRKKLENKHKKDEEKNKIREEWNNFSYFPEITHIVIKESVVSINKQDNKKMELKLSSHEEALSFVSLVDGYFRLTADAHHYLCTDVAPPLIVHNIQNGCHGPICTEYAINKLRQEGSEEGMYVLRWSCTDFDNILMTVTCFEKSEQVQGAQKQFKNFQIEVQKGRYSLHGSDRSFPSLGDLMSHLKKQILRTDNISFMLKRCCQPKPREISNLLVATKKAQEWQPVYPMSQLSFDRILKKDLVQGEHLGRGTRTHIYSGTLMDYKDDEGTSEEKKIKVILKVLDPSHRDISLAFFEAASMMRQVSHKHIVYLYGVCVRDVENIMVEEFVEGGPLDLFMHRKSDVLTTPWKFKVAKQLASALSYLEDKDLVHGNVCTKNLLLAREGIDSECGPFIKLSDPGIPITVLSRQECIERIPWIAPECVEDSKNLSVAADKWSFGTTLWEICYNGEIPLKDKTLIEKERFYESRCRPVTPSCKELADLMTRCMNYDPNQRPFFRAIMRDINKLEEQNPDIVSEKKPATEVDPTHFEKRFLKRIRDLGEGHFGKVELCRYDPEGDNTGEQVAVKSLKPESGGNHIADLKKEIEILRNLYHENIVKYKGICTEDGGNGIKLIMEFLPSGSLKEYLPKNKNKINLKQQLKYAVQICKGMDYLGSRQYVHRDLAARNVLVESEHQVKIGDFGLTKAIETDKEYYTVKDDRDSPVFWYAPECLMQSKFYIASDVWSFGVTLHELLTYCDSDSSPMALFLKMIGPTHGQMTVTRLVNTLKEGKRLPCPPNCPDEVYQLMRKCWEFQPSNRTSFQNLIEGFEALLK
JAK3, sequence (P52333 whole entry): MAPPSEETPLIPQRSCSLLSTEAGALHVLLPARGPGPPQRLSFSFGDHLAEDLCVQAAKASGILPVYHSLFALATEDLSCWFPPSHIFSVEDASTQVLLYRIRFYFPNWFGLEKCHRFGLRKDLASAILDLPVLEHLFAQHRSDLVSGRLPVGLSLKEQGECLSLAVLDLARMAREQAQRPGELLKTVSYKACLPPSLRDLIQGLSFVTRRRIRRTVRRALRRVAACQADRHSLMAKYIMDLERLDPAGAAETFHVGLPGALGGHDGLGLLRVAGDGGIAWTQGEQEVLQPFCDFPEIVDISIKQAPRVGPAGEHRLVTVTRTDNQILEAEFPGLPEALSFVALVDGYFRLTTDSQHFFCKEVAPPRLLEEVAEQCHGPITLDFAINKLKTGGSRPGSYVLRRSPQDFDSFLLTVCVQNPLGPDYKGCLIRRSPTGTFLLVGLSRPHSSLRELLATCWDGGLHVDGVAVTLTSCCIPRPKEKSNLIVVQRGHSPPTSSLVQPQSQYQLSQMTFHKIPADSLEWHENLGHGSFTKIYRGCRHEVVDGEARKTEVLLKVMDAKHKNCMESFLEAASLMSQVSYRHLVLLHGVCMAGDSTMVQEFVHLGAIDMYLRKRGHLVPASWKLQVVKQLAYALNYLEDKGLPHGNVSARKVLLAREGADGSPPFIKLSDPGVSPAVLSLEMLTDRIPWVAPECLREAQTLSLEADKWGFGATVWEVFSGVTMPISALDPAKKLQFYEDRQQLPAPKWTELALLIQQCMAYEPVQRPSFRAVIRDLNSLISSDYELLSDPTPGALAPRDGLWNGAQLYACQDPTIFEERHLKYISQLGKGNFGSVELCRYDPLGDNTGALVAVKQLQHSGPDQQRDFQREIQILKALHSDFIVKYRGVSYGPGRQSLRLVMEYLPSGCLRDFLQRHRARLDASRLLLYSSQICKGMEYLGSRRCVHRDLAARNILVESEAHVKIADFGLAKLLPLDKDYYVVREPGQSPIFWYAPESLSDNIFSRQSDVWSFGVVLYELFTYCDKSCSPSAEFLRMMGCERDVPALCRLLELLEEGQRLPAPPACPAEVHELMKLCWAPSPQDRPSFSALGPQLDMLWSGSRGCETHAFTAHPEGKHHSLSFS
TYK2, sequence (P29597 whole entry): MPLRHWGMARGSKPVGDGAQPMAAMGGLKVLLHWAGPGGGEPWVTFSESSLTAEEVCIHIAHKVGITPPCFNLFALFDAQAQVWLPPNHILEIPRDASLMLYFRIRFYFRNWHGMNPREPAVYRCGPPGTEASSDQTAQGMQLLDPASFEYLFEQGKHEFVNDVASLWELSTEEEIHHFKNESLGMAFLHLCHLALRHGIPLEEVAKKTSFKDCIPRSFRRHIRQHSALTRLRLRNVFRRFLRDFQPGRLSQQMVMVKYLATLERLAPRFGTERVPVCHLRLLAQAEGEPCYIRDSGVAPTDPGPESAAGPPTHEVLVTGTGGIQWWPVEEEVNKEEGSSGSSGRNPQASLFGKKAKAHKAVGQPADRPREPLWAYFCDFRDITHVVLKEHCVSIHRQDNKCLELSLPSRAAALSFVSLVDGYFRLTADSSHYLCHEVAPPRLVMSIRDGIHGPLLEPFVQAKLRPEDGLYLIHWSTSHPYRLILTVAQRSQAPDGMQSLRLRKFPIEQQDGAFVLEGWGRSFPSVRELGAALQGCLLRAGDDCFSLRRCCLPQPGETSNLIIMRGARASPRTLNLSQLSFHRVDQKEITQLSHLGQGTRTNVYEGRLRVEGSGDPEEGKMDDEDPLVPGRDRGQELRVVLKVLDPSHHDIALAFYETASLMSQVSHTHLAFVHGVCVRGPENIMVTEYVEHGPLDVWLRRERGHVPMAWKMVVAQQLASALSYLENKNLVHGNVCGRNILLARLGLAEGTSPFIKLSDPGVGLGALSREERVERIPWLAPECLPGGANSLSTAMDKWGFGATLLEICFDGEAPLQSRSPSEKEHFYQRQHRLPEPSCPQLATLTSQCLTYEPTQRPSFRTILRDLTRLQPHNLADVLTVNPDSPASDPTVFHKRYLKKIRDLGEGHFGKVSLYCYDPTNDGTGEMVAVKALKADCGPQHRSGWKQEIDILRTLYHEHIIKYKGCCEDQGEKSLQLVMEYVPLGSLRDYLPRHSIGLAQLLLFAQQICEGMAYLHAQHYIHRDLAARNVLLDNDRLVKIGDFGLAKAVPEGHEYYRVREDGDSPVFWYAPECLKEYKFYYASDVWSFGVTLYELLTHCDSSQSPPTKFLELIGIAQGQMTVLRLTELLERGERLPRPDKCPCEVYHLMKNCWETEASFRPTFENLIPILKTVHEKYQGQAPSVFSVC

SMILES | JAK1 pKi (JAK1) | Ki (TYK2) [nM] | Ki (JAK2) [nM] | Ki (JAK3) [nM] | IC50 [1] [nM] | Lung Tissue AUC(0-24) [2] | Lung Tissue:Plasma AUC ratio [2] | AUC(0-t) [2] [ng·h/mL] | Ki (JAK1) [nM] | JAK2 pKi (JAK2)
CCc1cc(O)ccc1-c1ccc2c(-c3nc(C4=C[C@H](COC)NC4)c[nH]3)n[nH]c2c1F [Compound 9, (R)-3-ethyl-4-(7-fluoro-3-(4-(5-(methoxymethyl)-2,5-dihydro-1H-pyrrol-3-yl)-1H-imidazol-2-yl)-1H-indazol-6-yl)phenol] | A (A represents a pKi value ≥10 (Ki≤0.1 nM)) | 10 to 100 | 0.1 to 1 | 0.1 to 1 | 3.16 to 10 | C (C denotes a value between 9 and 50) | C (C denotes a ratio between 100 and 200) | < 500 |  | 
CCc1cc(O)ccc1-c1ccc2c(-c3nc(C4=CCN(C5CN(C)C5)CC4)c[nH]3)n[nH]c2c1 [Compound 15, 3-ethyl-4-(3-(4-(1-(1-methylazetidin-3-yl)-1,2,3,6-tetrahydropyridin-4-yl)-1H-imidazol-2-yl)-1H-indazol-6-yl)phenol] |  | 1 to 10 |  | 0.1 to 1 | 10 to 31.6 | B (B denotes a value between 50 and 100) | C (C denotes a ratio between 100 and 200) | < 500 | 0.1 to 1 | A (A represents a pKi value ≥10 (Ki≤0.1 nM))
CCc1cc(O)ccc1-c1ccc2c(-c3nc(C4=CCN(C[C@@H]5COCCN5)CC4)c[nH]3)n[nH]c2c1 [Compound 17, (R)-3-ethyl-4-(3-(4-(1-(morpholin-3-ylmethyl)-1,2,3,6-tetrahydropyridin-4-yl)-1H-imidazol-2-yl)-1H-indazol-6-yl)phenol] |  | 1 to 10 | 0.1 to 1 | 0.1 to 1 | 3.16 to 10 | B (B denotes a value between 50 and 100) | C (C denotes a ratio between 100 and 200) | 500 to 1000 | 0.1 to 1 | 
CCc1cc(O)ccc1-c1ccc2c(-c3nc(C4=CCN(C)CC4)c[nH]3)n[nH]c2c1F [Example 21] | A (A represents a pKi value ≥10 (Ki≤0.1 nM)) | 0.1 to 1 |  | 0.1 to 1 | 3.16 to 10 | C (C denotes a value between 9 and 50) | D (D denotes a ratio between 50 and 100) | < 500 |  | A (A represents a pKi value ≥10 (Ki≤0.1 nM))
CCc1cc(O)ccc1-c1ccc2c(-c3nc(C4=CCN(C(C)C)CC4)c[nH]3)n[nH]c2c1F [Example 22] |  | 1 to 10 |  | 0.1 to 1 | 3.16 to 10 | C (C denotes a value between 9 and 50) | D (D denotes a ratio between 50 and 100) | < 500 | 0.1 to 1 | A (A represents a pKi value ≥10 (Ki≤0.1 nM))
CCc1cc(O)ccc1-c1ccc2c(-c3nc(C4=CCN(C5CCC5)CC4)c[nH]3)n[nH]c2c1F [Example 26] |  | 1 to 10 | 0.1 to 1 | 0.1 to 1 | 10 to 31.6 | C (C denotes a value between 9 and 50) | E (E denotes a ratio between 30 and 50) | < 500 | 0.1 to 1 | 
CCc1cc(O)ccc1-c1ccc2c(-c3nc(C4=CCN(C(C)C)C4)c[nH]3)n[nH]c2c1F [Example 32] |  | 1 to 10 | 0.1 to 1 | 0.1 to 1 | 3.16 to 10 | C (C denotes a value between 9 and 50) | D (D denotes a ratio between 50 and 100) | < 500 | 0.1 to 1 | 
CCc1cc(O)ccc1-c1ccc2c(-c3nc(C4=CCCN(CCO)C4)c[nH]3)n[nH]c2c1F [Example 44] |  | 1 to 10 | 0.1 to 1 | 0.1 to 1 | 3.16 to 10 | B (B denotes a value between 50 and 100) | D (D denotes a ratio between 50 and 100) | 500 to 1000 | 0.1 to 1 | 
CCc1cc(O)ccc1-c1ccc2c(-c3nc(C4=CCCN(CCCO)C4)c[nH]3)n[nH]c2c1F [Example 45] |  | 1 to 10 |  | 0.1 to 1 | 3.16 to 10 | C (C denotes a value between 9 and 50) | C (C denotes a ratio between 100 and 200) | < 500 | 0.1 to 1 | A (A represents a pKi value ≥10 (Ki≤0.1 nM))
CCc1cc(O)ccc1-c1ccc2c(-c3nc(C4=CCN(C(=O)[C@@H](N)C(C)(C)O)C4)c[nH]3)n[nH]c2c1 [Example 170] |  | 0.1 to 1 |  | 0.1 to 1 | 10 to 31.6 | B (B denotes a value between 50 and 100) | C (C denotes a ratio between 100 and 200) | < 500 | 0.1 to 1 | A (A represents a pKi value ≥10 (Ki≤0.1 nM))
CCc1cc(O)ccc1-c1ccc2c(-c3nc(C4=CCN(C5CCN(C)CC5)CC4)c[nH]3)n[nH]c2c1F [Example 185] |  | 1 to 10 | 0.1 to 1 | 0.1 to 1 | 10 to 31.6 | A (For the Lung Tissue AUC(0-24), A denotes a value between 100 and 200) | B (B denotes a ratio between 200 and 300) | 500 to 1000 | 0.1 to 1 | 
CCc1cc(O)ccc1-c1ccc2c(-c3nc(C4=CCCN(C5CCN(C)CC5)C4)c[nH]3)n[nH]c2c1 [Example 192] |  | 1 to 10 |  | 0.1 to 1 | 10 to 31.6 | A (For the Lung Tissue AUC(0-24), A denotes a value between 100 and 200) | A (For the ratio of lung exposure to plasma exposure, A denotes a ratio 300-410) | < 500 | 0.1 to 1 | A (A represents a pKi value ≥10 (Ki≤0.1 nM))
CCc1cc(O)ccc1-c1ccc2c(-c3nc(C4=CCN(C5CCN(C)CC5)C4)c[nH]3)n[nH]c2c1F [Example 201] |  | 1 to 10 |  | 0.1 to 1 | 3.16 to 10 | A (For the Lung Tissue AUC(0-24), A denotes a value between 100 and 200) | B (B denotes a ratio between 200 and 300) | 500 to 1000 | 0.1 to 1 | A (A represents a pKi value ≥10 (Ki≤0.1 nM))
CCc1cc(O)ccc1-c1ccc2c(-c3nc(C4=CCN(C5CN(C)C5)C4)c[nH]3)n[nH]c2c1F [Example 202] |  | 1 to 10 |  | 0.1 to 1 | 10 to 31.6 | B (B denotes a value between 50 and 100) | D (D denotes a ratio between 50 and 100) | 500 to 1000 | 0.1 to 1 | A (A represents a pKi value ≥10 (Ki≤0.1 nM))
CCc1cc(O)ccc1-c1ccc2c(-c3nc(C4=C(C)CNCC4)c[nH]3)n[nH]c2c1F [Example 227] |  | 1 to 10 | 0.1 to 1 | 1 to 10 | 10 to 31.6 | A (For the Lung Tissue AUC(0-24), A denotes a value between 100 and 200) | C (C denotes a ratio between 100 and 200) | 500 to 1000 | 0.1 to 1 | 
CCc1cc(O)ccc1-c1ccc2c(-c3nc(C4=CC[C@H](C)NC4)c[nH]3)n[nH]c2c1F [Example 234] | A (A represents a pKi value ≥10 (Ki≤0.1 nM)) | 1 to 10 | 0.1 to 1 | 1 to 10 | 3.16 to 10 | B (B denotes a value between 50 and 100) | C (C denotes a ratio between 100 and 200) | < 500 |  | 
CCc1cc(O)ccc1-c1ccc2c(-c3nc(C4=CC[C@@H](C)NC4)c[nH]3)n[nH]c2c1F [Example 235] |  | 1 to 10 |  | 0.1 to 1 | 10 to 31.6 | C (C denotes a value between 9 and 50) | C (C denotes a ratio between 100 and 200) | < 500 | 0.1 to 1 | A (A represents a pKi value ≥10 (Ki≤0.1 nM))
CCc1cc(O)ccc1-c1ccc2c(-c3nc(C4=C[C@@H](COC)NC4)c[nH]3)n[nH]c2c1F [Example 246] |  | 10 to 100 | 0.1 to 1 | 1 to 10 | 10 to 31.6 | C (C denotes a value between 9 and 50) | D (D denotes a ratio between 50 and 100) | < 500 | 0.1 to 1 | 
